Results as given in ChEMBL document CHEMBL5154864, “Design, synthesis and biological evaluation of novel nitric oxide donors with antioxidative activity” (Eur J Med Chem, 2022).
Activity calls are given as the source filed them. The calls are words filed in the database; no cut-off is given here.

Legend:
HUVEC [1] = assay: Effect on intracellular NO production in HUVEC cells assessed as increase in NO level at 5 uM incubated for 24 hrs by inverted microscopic analysis; assay type: functional, cell-based; conditions: Homo sapiens
HUVEC [2] = assay: Cytotoxicity against HUVEC cells assessed as reduction in cell viability at 5 uM in absence of TBHP by CCK8 assay; assay type: toxicity, cell-based; conditions: human
HUVEC [3] = assay: Cytoprotective activity against TBHP induced oxidative stress in human HUVEC cells assessed as increase in cell viability at 5 uM by CCK8 assay; assay type: functional, cell-based
HUVEC [4] = assay: Induction of oxidative stress in HUVEC cells assessed as increase in intracellular ROS level at 5 uM incubated for 24 hrs by DCHF staining based inverted microscopic analysis; assay type: functional, cell-based; conditions: Homo sapiens
Thoracic aorta = assay: Vasodilation activity in C57BL/6 mouse thoracic aorta assessed as relaxation of phenylephrine-induced contractions at 5 to 50 uM; assay type: functional, tissue-based; conditions: dose 5-50 µM
Mus musculus [5] = assay: Antihypertensive activity against C57BL/6 mouse model of Ang II-induced hypertension assessed as reduction in systolic blood pressure at 100 mg/kg/day, ip measured after 4 weeks; assay type: functional, organism-based; set-up: scale not given: the % may be the effect or the level left
Mus musculus [6] = assay: Antihypertensive activity against C57BL/6 mouse model of Ang II-induced hypertension assessed as reduction in diastolic blood pressure at 100 mg/kg/day, ip measured after 4 weeks; assay type: functional, organism-based; set-up: scale not given: the % may be the effect or the level left
Mus musculus [7] = assay: Reversal of Ang II infusion-induced endothelial dysfunction in C57BL/6 mouse model assessed as relaxation of ACh-stimulated vasodilation at 100 mg/kg/day, ip measured after 4 weeks; assay type: functional, organism-based
Mus musculus [8] = assay: Reversal of Ang II infusion-induced smooth muscle dysfunction in C57BL/6 mouse model assessed as relaxation of SNP-stimulated vasodilation at 100 mg/kg/day, ip measured after 4 weeks; assay type: functional, organism-based
Mus musculus [9] = assay: Antihypertensive activity against C57BL/6 mouse model of Ang II-induced hypertension assessed as reduction in thoracic arterial wall thickness at 100 mg/kg/day, ip measured after 4 weeks; assay type: functional, organism-based
Mus musculus [10] = assay: Antihypertensive activity against C57BL/6 mouse model of Ang II-induced hypertension assessed as reduction in vascular ROS level at 100 mg/kg/day, ip measured after 4 weeks; assay type: functional, organism-based

For `CC1(C)N(O)C(c2ccc(C(=O)O)cc2)=[N+]([O-])C1(C)C`, the Activity (HUVEC [1]) was “Active” and the Activity (HUVEC [2]) was “Non-Toxic”.

In the case of `CC1(C)CC(O)CC(C)(C)N1[O]`, the Activity (HUVEC [1]) is reported as “Active” and the Activity (HUVEC [3]) is reported as “Active”.

In the case of `O=[N+]([O-])O[C@@H]1CO[C@H]2[C@@H]1OC[C@@H]2O`, the Activity (HUVEC [1]) is reported as “Active”, the Activity (HUVEC [4]) is reported as “Active” and the Activity (Thoracic aorta) is reported as “Active”.

With “2-(2'-bromo-5'-hydroxylphenyl)-4,4,5,5-tetramethylimidazoline-1-oxyl-3-oxide” the Activity (HUVEC [1]) was “Active”.

With “2-(2'-bromo-6'-hydroxylphenyl)-4,4,5,5-tetramethylimidazoline-1-oxyl-3-oxide” the Activity (HUVEC [1]) was “Active”.

“2-(2'-hydroxylphenyl)-4,4,5,5-tetramethyl-imidazoline-1-oxyl-3-oxide” was tested, and the Activity (HUVEC [1]) was “Active”.

In the case of “2-(2-hydroxynaphthalen-1-yl)-4,4,5,5-tetramethylimidazoline-1-oxyl-3-oxide”, the Activity (HUVEC [1]) is reported as “Active”.

With “2-(3'-bromo-4'-hydroxylphenyl)-4,4,5,5-tetramethylimidazoline-1-oxyl-3-oxide” the Activity (HUVEC [1]) was “Active”.

With “2-(4-hydroxy-3-methoxyphenyl)-4,4,5,5-tetramethylimidazoline-1-oxyl-3-oxide” the Activity (HUVEC [1]) was “Active” and the Activity (HUVEC [3]) was “Active”.

With “(3S,6R)-6-(nitrooxy)hexahydrofuro[3,2-b]furan-3-yl 2-(2-(4,5-dihydro-4,4,5,5-tetramethyl-3-oxido-1H-imidazole-3-ium-1-oxyl-2-yl)phenoxy)acetate” the Activity (HUVEC [1]) was “Active” and the Activity (HUVEC [3]) was “Active”.

In the case of “(3S,6R)-6-(nitrooxy)hexahydrofuro[3,2-b]furan-3-yl 2-(2-bromo-4-(4,5-dihydro-4,4,5,5-tetramethyl-3-oxido-1H-imidazole-3-ium-1-oxyl-2-yl)phenoxy)acetate”, the Activity (HUVEC [1]) is reported as “Active” and the Activity (HUVEC [3]) is reported as “Active”.

“(3S,6R)-6-(nitrooxy)hexahydrofuro[3,2-b]furan-3-yl 2-(4-bromo-3-(4,5-dihydro-4,4,5,5-tetramethyl-3-oxido-1H-imidazole-3-ium-1-oxyl-2-yl)phenoxy)acetate” was tested, and the Activity (HUVEC [1]) was “Active”, the Activity (HUVEC [3]) was “Active” and the Activity (Thoracic aorta) was “Active”.

For “(3S,6R)-6-(nitrooxy)hexahydrofuro[3,2-b]furan-3-yl 3-(4,5-dihydro-4,4,5,5-tetramethyl-3-oxido-1H-imidazole-3-ium-1-oxyl-2-yl)benzoate”, the Activity (HUVEC [1]) was “Active” and the Activity (HUVEC [4]) was “Active”.

In the case of “(3S,6R)-6-(nitrooxy)hexahydrofuro[3,2-b]furan-3-yl 4-(4,5-dihydro-4,4,5,5-tetramethyl-3-oxido-1H-imidazole-3-ium-1-oxyl-2-yl)benzoate”, the Activity (HUVEC [1]) is reported as “Active” and the Activity (HUVEC [4]) is reported as “Active”.

“(3S,6R)-6-(nitrooxy)hexahydrofuro[3,2-b]furan-3-yl (4-(4,5-dihydro-4,4,5,5-tetramethyl-3-oxido-1H-imidazole-3-ium-1-oxyl-2-yl)naphthalen-2-yl)benzoyl)-D-prolinate” was tested, and the Activity (HUVEC [1]) was “Active”, the Activity (HUVEC [3]) was “Active” and the Activity (Thoracic aorta) was “Active”. For the same compound, the Activity (Mus musculus [5]) was 14.8%, the Activity (Mus musculus [6]) was 14.3% and the Activity (Mus musculus [7]) was “Active”. The Activity (Mus musculus [8]) was “Active”, the Activity (Mus musculus [9]) was “Active” and the Activity (Mus musculus [10]) was “Active”.

For “(3S,6R)-6-(nitrooxy)hexahydrofuro[3,2-b]furan-3-yl (4-(4,5-dihydro-4,4,5,5-tetramethyl-3-oxido-1H-imidazole-3-ium-1-oxyl-2-yl)naphthalen-2-yl)benzoyl)-L-prolinate”, the Activity (HUVEC [1]) was “Active”, the Activity (HUVEC [4]) was “Active” and the Activity (HUVEC [3]) was “Active”.
